Reference: PMC6070925, “Genome Mining of Non-Conventional Yeasts: Search and Analysis of MAL Clusters and Proteins” (Genes, 2018)

What was measured:
Test in all cases: glucose release, recombinant E. coli extract
Type in all cases: biochemical
Conditions in all cases: 100 mM substrate, K-phosphate pH 6.5, 0.1 mM EDTA, 30 °C
MAL62 (Sc MAL62) [1] = target: T1, MAL62 (Sc MAL62) (Saccharomyces cerevisiae, UniProt P07265)
T1 construct: gene from plasmid pY6 cloned into pURI3-Cter, expressed in E. coli BL21 (DE3), crude cell extract

MAL7 (Ss MAL7) = target: T2, MAL7 (Ss MAL7) (Scheffersomyces stipitis, UniProt A3LUP5)
T2 construct: gene PCR-cloned from genomic DNA into pURI3-Cter, expressed in E. coli BL21 (DE3), crude cell extract
T2 sequence (A3LUP5 1-572): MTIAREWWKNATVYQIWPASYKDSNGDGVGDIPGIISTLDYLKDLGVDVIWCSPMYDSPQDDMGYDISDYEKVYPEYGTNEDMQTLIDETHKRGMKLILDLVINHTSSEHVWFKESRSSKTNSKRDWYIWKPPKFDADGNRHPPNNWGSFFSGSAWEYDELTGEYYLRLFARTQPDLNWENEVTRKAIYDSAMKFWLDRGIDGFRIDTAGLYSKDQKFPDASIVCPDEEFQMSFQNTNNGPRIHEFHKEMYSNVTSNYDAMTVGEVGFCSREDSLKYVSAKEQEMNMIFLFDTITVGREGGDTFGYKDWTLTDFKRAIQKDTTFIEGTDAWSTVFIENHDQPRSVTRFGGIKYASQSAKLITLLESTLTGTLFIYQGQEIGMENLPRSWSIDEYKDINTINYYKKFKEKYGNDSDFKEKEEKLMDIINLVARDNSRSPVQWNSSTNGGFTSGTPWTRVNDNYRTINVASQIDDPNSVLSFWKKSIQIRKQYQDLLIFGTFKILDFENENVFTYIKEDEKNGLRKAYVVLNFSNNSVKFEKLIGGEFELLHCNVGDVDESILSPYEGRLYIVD

MAL9 (Ss MAL9) = target: T3, MAL9 (Ss MAL9) (Scheffersomyces stipitis, UniProt A3GIC0)
T3 construct: gene PCR-cloned from genomic DNA into pURI3-Cter, expressed in E. coli BL21 (DE3), crude cell extract
T3 sequence (A3GIC0 1-573): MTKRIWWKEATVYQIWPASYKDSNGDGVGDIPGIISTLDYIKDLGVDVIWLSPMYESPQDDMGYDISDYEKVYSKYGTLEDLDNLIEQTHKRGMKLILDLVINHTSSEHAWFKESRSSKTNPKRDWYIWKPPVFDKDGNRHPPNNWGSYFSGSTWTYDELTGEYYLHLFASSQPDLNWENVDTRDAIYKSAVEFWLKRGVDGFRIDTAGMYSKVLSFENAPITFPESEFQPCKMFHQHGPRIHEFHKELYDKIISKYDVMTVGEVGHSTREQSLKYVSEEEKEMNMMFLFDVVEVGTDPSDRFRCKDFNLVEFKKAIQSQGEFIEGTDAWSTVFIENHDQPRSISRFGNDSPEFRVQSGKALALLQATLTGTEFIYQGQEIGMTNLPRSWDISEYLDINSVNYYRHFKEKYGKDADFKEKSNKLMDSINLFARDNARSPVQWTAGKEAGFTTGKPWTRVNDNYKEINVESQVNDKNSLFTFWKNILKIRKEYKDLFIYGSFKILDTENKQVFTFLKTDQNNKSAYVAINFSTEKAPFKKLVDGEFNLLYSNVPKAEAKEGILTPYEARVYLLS

MAL8 (Ss MAL8) = target: T4, MAL8 (Ss MAL8) (Scheffersomyces stipitis, UniProt A3LXA2)
T4 construct: gene PCR-cloned from genomic DNA into pURI3-Cter, expressed in E. coli BL21 (DE3), crude cell extract
T4 sequence (A3LXA2 1-572): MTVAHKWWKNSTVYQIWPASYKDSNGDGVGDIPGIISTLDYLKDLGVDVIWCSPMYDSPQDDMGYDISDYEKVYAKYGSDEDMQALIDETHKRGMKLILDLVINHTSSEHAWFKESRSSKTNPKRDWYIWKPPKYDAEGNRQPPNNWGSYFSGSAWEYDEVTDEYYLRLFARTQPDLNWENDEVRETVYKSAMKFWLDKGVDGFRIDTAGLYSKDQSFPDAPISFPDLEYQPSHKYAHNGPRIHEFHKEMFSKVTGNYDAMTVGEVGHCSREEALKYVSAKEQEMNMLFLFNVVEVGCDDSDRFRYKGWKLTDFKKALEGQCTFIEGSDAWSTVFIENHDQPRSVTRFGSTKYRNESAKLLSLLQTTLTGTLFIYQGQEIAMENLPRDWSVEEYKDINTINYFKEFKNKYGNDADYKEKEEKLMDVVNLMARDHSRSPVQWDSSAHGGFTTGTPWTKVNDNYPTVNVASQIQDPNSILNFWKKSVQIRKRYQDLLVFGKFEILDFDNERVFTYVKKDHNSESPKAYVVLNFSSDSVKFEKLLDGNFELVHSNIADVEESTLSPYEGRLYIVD

MAL62 (Sc MAL62) [2] = target: T1, MAL62 (Sc MAL62); remark: listed apart in the source

T1 sequence (P07265 whole entry): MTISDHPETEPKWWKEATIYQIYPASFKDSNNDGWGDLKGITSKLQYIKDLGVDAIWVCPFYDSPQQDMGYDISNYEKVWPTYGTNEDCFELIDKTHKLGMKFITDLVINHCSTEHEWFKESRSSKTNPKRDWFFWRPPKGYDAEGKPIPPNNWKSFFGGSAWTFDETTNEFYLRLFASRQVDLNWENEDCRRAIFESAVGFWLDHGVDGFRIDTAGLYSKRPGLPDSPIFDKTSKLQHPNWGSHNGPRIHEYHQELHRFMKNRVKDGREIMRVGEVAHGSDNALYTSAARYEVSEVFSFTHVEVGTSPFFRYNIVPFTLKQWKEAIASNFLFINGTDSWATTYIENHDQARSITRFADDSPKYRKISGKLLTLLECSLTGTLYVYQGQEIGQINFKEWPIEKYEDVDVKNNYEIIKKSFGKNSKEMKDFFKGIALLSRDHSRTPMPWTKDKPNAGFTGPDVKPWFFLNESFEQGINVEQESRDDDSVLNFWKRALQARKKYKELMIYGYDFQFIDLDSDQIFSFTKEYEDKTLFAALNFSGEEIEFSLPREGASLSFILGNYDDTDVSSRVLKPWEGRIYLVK

SMILES | specific activity relative to sucrose (MAL62 (Sc MAL62) [1]) | specific activity relative to sucrose (MAL7 (Ss MAL7)) | specific activity relative to sucrose (MAL9 (Ss MAL9)) | specific activity relative to sucrose (MAL8 (Ss MAL8)) | specific activity (MAL62 (Sc MAL62) [2])
OC[C@H]1O[C@H](O[C@H]2[C@H](O)[C@@H](O)C(O)O[C@@H]2CO)[C@H](O)[C@@H](O)[C@@H]1O (some centres unmarked) [maltose] | behaved as a typical maltase using only maltose-like substrates | all these enzymes hydrolyzed not only maltose-like substrates (maltose, sucrose) | all these enzymes hydrolyzed not only maltose-like substrates (maltose, sucrose) | all these enzymes hydrolyzed not only maltose-like substrates (maltose, sucrose) | 
OC[C@H]1O[C@@](CO)(O[C@H]2O[C@H](CO)[C@@H](O)[C@H](O)[C@H]2O)[C@@H](O)[C@@H]1O [sucrose] |  |  |  |  | behaved as a typical maltase using only maltose-like substrates
